In patent US20110046130A1, “TETRAHYDRONAPHTHYRIDINES AND AZA DERIVATIVES THEREOF AS HISTAMINE H3 RECEPTOR ANTAGONISTS” (Evotec AG, priority 2008, published 2011):

biological target: T1, human H3 receptors (Homo sapiens, UniProt Q9Y5N1); test: cAMP quantification protocol for human H3 receptor testing; assay type: cell-based; conditions: inhibition of agonist-induced (100 nM histamine, 10 μM forskolin) decrease of intracellular cAMP; CHO-K1 cell line expressing human H3 receptors; read-out: Potency range (IC50 values)
T1 construct: host or cells: CHO-K1
T1 sequence (Q9Y5N1 whole entry): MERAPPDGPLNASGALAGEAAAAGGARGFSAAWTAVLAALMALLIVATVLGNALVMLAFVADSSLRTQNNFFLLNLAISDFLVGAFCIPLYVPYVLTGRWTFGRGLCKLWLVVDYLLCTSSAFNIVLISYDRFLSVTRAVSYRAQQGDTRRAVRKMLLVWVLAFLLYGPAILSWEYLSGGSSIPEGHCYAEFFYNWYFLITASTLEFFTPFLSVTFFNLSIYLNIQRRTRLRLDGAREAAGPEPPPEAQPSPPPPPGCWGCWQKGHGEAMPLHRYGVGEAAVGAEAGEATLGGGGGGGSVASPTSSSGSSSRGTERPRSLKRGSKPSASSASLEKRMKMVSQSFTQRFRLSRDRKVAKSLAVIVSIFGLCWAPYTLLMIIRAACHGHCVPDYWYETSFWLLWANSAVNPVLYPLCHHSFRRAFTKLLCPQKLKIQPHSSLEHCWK
Procedure: CHO-K1 cell line expressing human H3 receptors were purchased from Euroscreen (Gosselies, Belgium, Cat. no.: ES-392-C)
Human H3 receptor-expressing cell-lines were grown in Ham's F12 [Sigma, Cat. no. N6658], supplemented with 10% FBS [Sigma, Cat. no. F9665], 400 μg/ml G418 [Sigma, Cat. no. N1876] and 250 μg/ml Zeocin [Invitrogen, Cat. no. 46-0509]) according to the protocol provided by Euroscreen.
cAMP Quantification Protocol for Human H3 Receptor Testing
The assay measures the ability of test compounds to inhibit Histamine receptor agonist-induced decrease of intracellular free cAMP (receptor is Gi coupled).
Specifically, a cAMP quantification assay system from DiscoveRx (cAMP XS+; Cat. no. 90-0075) was used.
For the cAMP assay, confluent cells were detached from the culture vessels with 1× trypsin-EDTA solution (Sigma), and seeded into 384-well Costar plates (white, clear bottom, Cat. no. 3707) at a density of 10,000 cells per well. Cells were seeded in a volume of 50 μl in medium without antibiotics and incubated overnight in a humidified atmosphere with 5% CO2 at 37° C. The cAMP assay was performed according to the protocol provided by DiscoveRx.
The cell culture medium was removed and the cells washed once with PBS (50 μl per well). The plates were emptied by inversion and 7.5 μl/well of compound in PBS (containing 1 mM IBMX and 0.03% BSA) were added and incubated for 30 min at 37° C.
Subsequent 7.5 μl/well specific agonist solution was added and the plates for another 30 min incubated at 37° C.
The following agonist solution is used:
100 nM histamine, 10 μM forskolin in PBS (containing 1 mM IBMX and 0.03% BSA)
After the incubation with the agonist, 5 μl/well cAMP XS antibody solution was added followed by 20 μl/well Gal/EII/Lysis(1:5:19)+ED (1:1). The plates were incubated for one hour at room temperature and afterwards 20 μl/well EA reagent was added. The luminescence was developed for approximately three hours at room temperature and the plates were read out using a ‘BMG Novostar’ plate reader.
Test compounds were assayed at 8 concentrations in triplicate. Serial 10-fold dilutions in 100% DMSO were made at a 100-times higher concentration than the final concentration and then diluted with a 2 step protocol in assay buffer to reach the required assay concentrations and 1% DMSO.

IC50 | Compound
100 to 500 nM | O=C1CCCC2c3ccc(O[C@@H]4CCN(C5CCC5)C4)nc3CCN12 (mixture of isomers) [Example 16, 3-{[(3R)-1-cyclobutylpyrrolidin-3-yl]oxy}-5,6,9,10,11,11a-hexahydro-8H-pyrido[2,1-f][1,6]naphthyridin-8-one]
500 to 5000 nM | O=C1CCCC2c3ccc(O[C@H]4CCN(C5CCC5)C4)nc3CCN12 (mixture of isomers) [Example 17, 3-{[(3S)-1-cyclobutylpyrrolidin-3-yl]oxy}-5,6,9,10,11,11a-hexahydro-8H-pyrido[2,1-f][1,6]naphthyridin-8-one]
< 100 nM | O=C1CCCC2c3ccc(OCCCN4CCCC4)nc3CCN12 (stereo not drawn) [Example 18, 3-(3-pyrrolidin-1-ylpropoxy)-5,6,9,10,11,11a-hexahydro-8H-pyrido[2,1-f][1,6]naphthyridin-8-one]
< 100 nM | O=C1CCCC2c3ccc(OCCCN4CCCCC4)nc3CCN12 (stereo not drawn) [Example 19, 3-(3-piperidin-1-ylpropoxy)-5,6,9,10,11,11a-hexahydro-8H-pyrido[2,1-f][1,6]naphthyridin-8-one]
500 to 5000 nM | O=C1CCCC2c3ccc(OCCCN4CCOCC4)nc3CCN12 (stereo not drawn) [Example 20, 3-(3-morpholin-4-ylpropoxy)-5,6,9,10,11,11a-hexahydro-8H-pyrido[2,1-f][1,6]naphthyridin-8-one]
100 to 500 nM | O=C1CCCC2c3ccc(O[C@H]4CCN(C5CCCC5)C4)nc3CCN12 (stereo partly drawn) [Example 21, 3-{[(3S)-1-cyclopentylpyrrolidin-3-yl]oxy}-5,6,9,10,11,11a-hexahydro-8H-pyrido[2,1-f][1,6]naphthyridin-8-one]
< 100 nM | O=C1CCCC2c3ccc(OC4CCN(C5CCCCC5)CC4)nc3CCN12 (stereo not drawn) [Example 22, 3-[(1-Cyclohexylpiperidin-4-yl)oxy]-5,6,9,10,11,11a-hexahydro-8H-pyrido[2,1-f][1,6]naphthyridin-8-one]
500 to 5000 nM | CN1CCC(Oc2ccc3c(n2)CCN2C(=O)CCCC32)CC1 (stereo not drawn) [Example 23, 3-[(1-Methylpiperidin-4-yl)oxy]-5,6,9,10,11,11a-hexahydro-8H-pyrido[2,1-f][1,6]naphthyridin-8-one]
500 to 5000 nM | O=C1CCCC2c3ccc(OCCN4CCCCC4)nc3CCN12 (stereo not drawn) [Example 24, 3-(2-piperidin-1-ylethoxy)-5,6,9,10,11,11a-hexahydro-8H-pyrido[2,1-f][1,6]naphthyridin-8-one]
< 100 nM | O=C1CCCC2c3ccc(OC4CCN(C5CCCC5)CC4)nc3CCN12 (stereo not drawn) [Example 26, 3-[(1-Cyclopentylpiperidin-4-yl)oxy]-5,6,9,10,11,11a-hexahydro-8H-pyrido[2,1-f][1,6]naphthyridin-8-one]
< 100 nM | O=C1CCC2c3ccc(OC4CCN(C5CCC5)CC4)nc3CCN12 (stereo not drawn) [Example 27, 3-[(1-Cyclobutylpiperidin-4-yl)oxy]-5,9,10,10a-tetrahydropyrrolo[2,1-f][1,6]naphthyridin-8(6H)-one]
< 100 nM | O=C1CCC2c3ccc(OC4CCN(C5CCCC5)CC4)nc3CCN12 (stereo not drawn) [Example 28, 3-[(1-Cyclopentylpiperidin-4-yl)oxy]-5,9,10,10a-tetrahydropyrrolo[2,1-f][1,6]naphthyridin-8(6H)-one]
< 100 nM | N#Cc1cc2c(nc1OC1CCN(C3CCC3)CC1)CCN1C(=O)CCCC21 (stereo not drawn) [Example 29, 3-[(1-Cyclobutylpiperidin-4-yl)oxy]-8-oxo-5,8,9,10,11,11a-hexahydro-6H-pyrido[2,1-f][1,6]naphthyridine-2-carbonitrile]
< 100 nM | CC(C)N1CCC(Oc2nc3c(cc2C#N)C2CCCC(=O)N2CC3)CC1 (stereo not drawn) [Example 30, 3-{[1-(1-methylethyl)piperidin-4-yl]oxy}-8-oxo-5,8,9,10,11,11a-hexahydro-6H-pyrido[2,1-f][1,6]naphthyridine-2-carbonitrile]
< 100 nM | O=C1CCCC2c3ccc(OC4CCN(CC5CC5)CC4)nc3CCN12 (stereo not drawn) [Example 33, 3-{[1-(cyclopropylmethyl)piperidin-4-yl]oxy}-5,6,9,10,11,11a-hexahydro-8H-pyrido[2,1-f][1,6]naphthyridin-8-one]

Continued, compound first:

Compound | IC50
CN1CCc2nc(OC3CCN(C4CCC4)CC3)ccc2C1 [Example 1, 2-[(1-Cyclobutylpiperidin-4-yl)oxy]-6-methyl-5,6,7,8-tetrahydro-1,6-naphthyridine] | < 100 nM
CN1CCc2nc(OC3CCN(C4CCCC4)CC3)ccc2C1 [Example 2, 2-[(1-Cyclopentylpiperidin-4-yl)oxy]-6-methyl-5,6,7,8-tetrahydro-1,6-naphthyridine] | < 100 nM
CN1CCc2nc(O[C@@H]3CCN(C4CCCC4)C3)ccc2C1 [Example 3, 2-{[(3R)-1-Cyclopentylpyrrolidin-3-yl]oxy}-6-methyl-5,6,7,8-tetrahydro-1,6-naphthyridine] | 100 to 500 nM
CN1CCc2nc(O[C@H]3CCN(C4CCCC4)C3)ccc2C1 [Example 4, 2-{[(3S)-1-Cyclopentylpyrrolidin-3-yl]oxy}-6-methyl-5,6,7,8-tetrahydro-1,6-naphthyridine] | 100 to 500 nM
CN1CCc2nc(O[C@@H]3CCN(C4CCC4)C3)ccc2C1 [Example 5, 2-{[(3R)-1-Cyclobutylpyrrolidin-3-yl]oxy}-6-methyl-5,6,7,8-tetrahydro-1,6-naphthyridine] | 100 to 500 nM
CN1CCc2nc(O[C@H]3CCN(C4CCC4)C3)ccc2C1 [Example 6, 2-{[(3S)-1-Cyclobutylpyrrolidin-3-yl]oxy}-6-methyl-5,6,7,8-tetrahydro-1,6-naphthyridine] | 500 to 5000 nM
CN1CCc2nc(OCCCN3CCCC3)ccc2C1 [Example 7, 6-Methyl-2-(3-pyrrolidin-1-ylpropoxy)-5,6,7,8-tetrahydro-1,6-naphthyridine] | < 100 nM
CC(C)N1CCC(Oc2ccc3c(n2)CCN(C)C3)CC1 [Example 8, 6-Methyl-2-{[1-(1-methylethyl)piperidin-4-yl]oxy}-5,6,7,8-tetrahydro-1,6-naphthyridine] | < 100 nM
CN1CCC(Oc2ccc3c(n2)CCN(C)C3)CC1 [Example 9, 6-Methyl-2-[(1-methylpiperidin-4-yl)oxy]-5,6,7,8-tetrahydro-1,6-naphthyridine] | 500 to 5000 nM
CC(C)N1CCC(Oc2nc3c(cc2C#N)CN(C)CC3)CC1 [Example 10, 6-Methyl-2-{[1-(1-methylethyl)piperidin-4-yl]oxy}-5,6,7,8-tetrahydro-1,6-naphthyridine-3-carbonitrile] | < 100 nM
CN1CCc2nc(OC3CCN(C4CC4)CC3)c(C#N)cc2C1 [Example 11, 2-[(1-Cyclopropylpiperidin-4-yl)oxy]-6-methyl-5,6,7,8-tetrahydro-1,6-naphthyridine-3-carbonitrile] | < 100 nM
CN1CCc2nc(OC3CCN(C4CCC4)CC3)c(C#N)cc2C1 [Example 12, 2-[(1-Cyclobutylpiperidin-4-yl)oxy]-6-methyl-5,6,7,8-tetrahydro-1,6-naphthyridine-3-carbonitrile] | < 100 nM
CN1CCc2nc(OC3CCN(C4CCC4)CC3)ncc2C1 [Example 13, 2-[(1-Cyclobutylpiperidin-4-yl)oxy]-6-methyl-5,6,7,8-tetrahydropyrido[4,3-d]pyrimidine] | < 100 nM
O=C1CCCC2c3ccc(OC4CCN(C5CCC5)CC4)nc3CCN12 (stereo not drawn) [Example 14, 3-[(1-Cyclobutylpiperidin-4-yl)oxy]-5,6,9,10,11,11a-hexahydro-8H-pyrido[2,1-f][1,6]naphthyridin-8-one] | < 100 nM
CC(C)N1CCC(Oc2ccc3c(n2)CCN2C(=O)CCCC32)CC1 (stereo not drawn) [Example 15, 3-{[1-(1-methylethyl)piperidin-4-yl]oxy}-5,6,9,10,11,11a-hexahydro-8H-pyrido[2,1-f][1,6]naphthyridin-8-one] | < 100 nM
O=C1CCCC2c3ccc(OCCCCN4CCCCC4)nc3CCN12 (stereo not drawn) [Example 25, 3-(4-piperidin-1-ylbutoxy)-5,6,9,10,11,11a-hexahydro-8H-pyrido[2,1-f][1,6]naphthyridin-8-one] | 100 to 500 nM
CN(c1nc2c(cc1C#N)C1CCCC(=O)N1CC2)C1CCN(C2CCC2)CC1 (stereo not drawn) [Example 31, 3-[(1-cyclobutylpiperidin-4-yl)(methyl)amino]-8-oxo-5,8,9,10,11,11a-hexahydro-6H-pyrido[2,1-f][1,6]naphthyridine-2-carbonitrile] | < 100 nM
CC(C)N1CCC(N(C)c2ccc3c(n2)CCN2C(=O)CCCC32)CC1 (stereo not drawn) [Example 32, 3-{methyl[1-(1-methylethyl)piperidin-4-yl]amino}-5,6,9,10,11,11a-hexahydro-8H-pyrido[2,1-f][1,6]naphthyridin-8-one] | < 100 nM
